Reference: patent publication US11376306B2, “Peptides and uses therefor as antiviral agents” (priority 2017, dated 2022)
Positions of bridges follow the written chain, without caps; N, C: chain ends. Non-standard residues stand in square brackets, D forms with d. Residues, ends and D or L forms follow the SMILES beside them.

How the values were obtained:
[1] = system: RSV A2; assay: Cytopathic effect (CPE) assay, RSV A2 on Hep-2 cells; format: cell-based, Respiratory syncytial virus; conditions: CPE assay on Hep-2 cells, MOI 0.02, 5 days
Protocol: FIG. 1: Effect of H-RRKKcwwftfiac-OH (PSP VI A1) against RSV A2 in vitro. The ability of the peptide to inhibit the replication of RSV A2 was determined by CPE assay on Hep-2 cells. Experiments were done in triplicates and carried out in the presence of DMSO or increasing concentration of test compound.
(§1) Cytopathic effect (CPE) assay for HSV, RSV and CMV: Appropriate cells were seeded into 96 well plates and incubated overnight until they reached ˜70% confluency. Viruses were treated with various concentrations of peptide or vehicle for 90 minutes at 4° C. and added on to the confluent monolayer of cells for the rest of the assay. At the end of the incubation period, the viability of the cells was determined by adding MTT reagent and incubating the plates at 37° C. for 2-4 hours at 5% CO2. After the incubation, 100% isopropanol was added to solubilise the formazan crystals and the absorbance was recorded at 540 nm subtracting the background at 620 nm.
(§2) Pauwels formula (shown below) was used to calculate the percent cell protection achieved by the positive control or test compounds.
(§3) Percent cell protection=([ODt]virus−[ODc]virus/[ODc]mock−[ODc]virus)×100
(§4) These percentages were used to determine the ECso which were calculated by non-linear regression analysis with IDBS XLFit Excel Add-in Version 5.4.0.8

[2] = system: HSV-2; assay: Cytopathic effect (CPE) assay, HSV-2 on Vero cells; format: cell-based, Herpes Simplex Virus; conditions: MOI 0.02, 4 days
Protocol: FIG. 3: Effect of PSP VI A1 against HSV-2 in vitro. The ability of the peptide to inhibit the replication of HSV was determined by CPE assay on Vero cells. Experiments were done in triplicates and carried out in the presence of DMSO or increasing concentration of test compound.
as §1, §2, §3, §4

[3] = system: CMV AD169; assay: Cytopathic effect (CPE) assay, CMV AD169 on HFFF-2 cells; format: cell-based, Cytomegalovirus; conditions: CPE assay on HFFF-2 cells, MOI 0.006, 14 days
Protocol: FIG. 5: Effect of PSP VI A1 against CMV in vitro. The ability of the peptide to inhibit the replication of CMV was determined by CPE assay on HFFF-2 cells. Experiments were done in triplicates and carried out in the presence of DMSO or increasing concentration of test compound.
as §1, §2, §3, §4

[4] = system: HIV-1 92UG029; format: cell-based, Human Immunodeficiency Virus
Protocol: FIG. 7: Effect of PSP VI A1 against HIV-1 92UG029 in vitro. The ability of the peptide to inhibit the replication of HIV was determined by reverse transcriptase assay on PBMCs. Experiments were carried out in the presence of DMSO or increasing concentration of peptide. Results are presented as mean value of triplicate measurements.
Anti-HIV Efficacy Evaluation in Fresh Human PBMCs: PBMCs were infected with various concentrations of peptide treated viruses and incubated at 37° C., 5% CO2 for seven days. After this incubation, the cells were centrifuged down and the supernatants were collected for reverse transcriptase activity (RT) assay. The cytotoxic effects of the compounds were studied with the addition of MTS to the cells following the removal of the supernatant. Data analysis for IC50 and TC50 was done by the CRO with their in house computer program.
Reverse transcriptase activity assay: Reverse transcriptase (RT) assay was carried out in a microtiter plate. Briefly Tritiated thymidine triphosphate (3H-TTP, 80 Ci/mmol, NEN;(GE Healthcare) was prepared as a stock solution by combining 150 μL poly rA (20 mg/mL) with 0.5 mL oligo dT (20 units/mL) and 5.35 mL sterile dH2O. Fresh RT reaction buffer was prepared with 125 μL 1.0 M EGTA, 125 μL dH2O, 125 μL 20% Triton X100, 50 μL 1.0 M Tris (pH 7.4), 50 μL 1.0 M DTT, and 40 μL 1.0 M MgCl2. The final reaction mixture was obtained by mixing 1 part of 3H-TTP, 4 parts dH2O, 2.5 parts poly rA:oligo dT stock and 2.5 parts reaction buffer. Ten microliters of this reaction mixture was added to the microtiter plate and 15 μL of virus containing supernatant is added and mixed. Then the plate was incubated at 37° C. for 60 minutes. After the incubation, the reaction volume was spotted onto DE81 filter-mats (Wallac), washed extensively with 5% sodium phosphate buffer or 2× SSC (Life Technologies), then in distilled water which was followed by 70% ethanol wash and air drying. Standard liquid scintillation techniques were used to quantify the incorporated radioactivity (counts per minute, CPM).

[5] = Cytotoxicity Assay 2 (CellTiter 96 AQueous One) on MDCK cells; format: cell-based; conditions: dog, 0.1-100 μM, no significant toxicity, read-out: CE50 (Cytotoxic Effect 50)
Protocol: (§5) Cytotoxicity Assay 2: MDCK cells or A549 cells (˜5000 cells/well) are grown overnight on 96 well plates. The media is replaced by serially diluted peptides and incubated again for 24/48 h. The culture medium is removed and 20 μl of CellTiter 96® AQueous One Solution […] (Promega, Wis., USA) is added and incubated at 37° C. for 2 h. The optical density is measured at 490 nm in an microplate reader (iMARK, BioRad, USA).
(§6) Cytotoxic effects of anti-viral peptides on MDCK cells or A549 cells: The cytotoxic effects of anti-viral peptides are shown in FIG. 12 and FIG. 13 which are assessed as explained in Example 1. Briefly, the MDCK cells/A549 cells are treated with either 0 μM peptide (Mock) or increasing concentrations (i.e., 0.1 μM, 0.3 μM, 1 μM, 3 μM, 10 μM, 30 μM and 100 μM) of PSP V A19 and PSP VI A1 and the cell death is determined by 48 hours post infection by a cytotoxicity assay with CellTiter 96® AQueous One Solution cell proliferation assay kit (Promega, USA) as explained by manufacturer. The results are normalized to the mock treated cells.

[6] = Cytotoxicity Assay 2 (CellTiter 96 AQueous One) on A549 cells; format: cell-based; conditions: human, 0.1-100 μM, no significant toxicity, read-out: CE50 (Cytotoxic Effect 50)
Protocol: as §5, §6

| Structure (SMILES) | EC50 [1] [µM] | EC50 [2] [µM] | EC50 [3] [µM] | IC50 [4] [µM] | CC50 at 48 h [5] [µM] | CC50 at 48 h [6] [µM] |
| --- | --- | --- | --- | --- | --- | --- |
| CC[C@@H](C)[C@H]1NC(=O)[C@@H](Cc2ccccc2)NC(=O)[C@@H]([C@H](C)O)NC(=O)[C@@H](Cc2ccccc2)NC(=O)[C@@H](Cc2c[nH]c3ccccc23)NC(=O)[C@@H]([C@H](C)O)NC(=O)[C@H](NC(=O)[C@H](CCCCN)NC(=O)[C@H](CCCCN)NC(=O)[C@H](CCCNC(=N)N)NC(=O)[C@@H](N)CCCNC(=N)N)CSSC[C@H](C(=O)O)NC(=O)[C@@H](CC(N)=O)NC1=O [PSP IV A17, H-RRKKctwftfinc-OH] (H-RRKK[dC][dT][dW][dF][dT][dF][dI][dN][dC]-OH; disulfide 5-13) | 12.6 | ~30 | 18.9 | – | – | – |
| CC[C@@H](C)[C@H]1NC(=O)[C@@H](Cc2ccccc2)NC(=O)[C@@H]([C@H](C)O)NC(=O)[C@@H](Cc2ccccc2)NC(=O)[C@@H](Cc2c[nH]c3ccccc23)NC(=O)[C@@H](Cc2c[nH]c3ccccc23)NC(=O)[C@H](NC(=O)[C@H](CCCCN)NC(=O)[C@H](CCCCN)NC(=O)[C@H](CCCNC(=N)N)NC(=O)[C@@H](N)CCCNC(=N)N)CSSC[C@H](C(=O)O)NC(=O)[C@@H](C)NC1=O [PSP VI A1, H-RRKKcwwftfiac-OH] (H-RRKK[dC][dW][dW][dF][dT][dF][dI][dA][dC]-OH; disulfide 5-13) | 17.8 | ~30 | 13.8 | 60.8 | > 30 | > 30 |
| CC[C@@H](C)[C@H]1NC(=O)[C@@H](Cc2ccccc2)NC(=O)[C@@H]([C@H](C)O)NC(=O)[C@@H](Cc2ccccc2)NC(=O)[C@@H](Cc2c[nH]c3ccccc23)NC(=O)[C@@H](Cc2c[nH]c3ccccc23)NC(=O)[C@H](N)CSSC[C@H](C(=O)O)NC(=O)[C@@H](CC(N)=O)NC1=O [PSP V A19-C, H-cwwftfinc-OH] (H-[dC][dW][dW][dF][dT][dF][dI][dN][dC]-OH; disulfide 1-9) | – | – | – | 66.5 | – | – |
| CC[C@@H](C)[C@@H](NC(=O)[C@@H](Cc1ccccc1)NC(=O)[C@H](NC(=O)[C@@H](Cc1ccccc1)NC(=O)[C@@H](Cc1c[nH]c2ccccc12)NC(=O)[C@H](NC(=O)[C@H](CCCCN)NC(=O)[C@H](CCCCN)NC(=O)[C@H](CCCNC(=N)N)NC(=O)[C@@H](N)CCCNC(=N)N)[C@H](C)O)[C@H](C)O)C(=O)N[C@H](CC(N)=O)C(=O)O [PSP IV A17-LS, H-RRKKtwftfin-OH] (H-RRKK[dT][dW][dF][dT][dF][dI][dN]-OH) | – | – | – | 79.1 | – | – |
| CC[C@@H](C)[C@H]1NC(=O)[C@@H](Cc2ccccc2)NC(=O)[C@@H]([C@H](C)O)NC(=O)[C@@H](Cc2ccccc2)NC(=O)[C@@H](Cc2c[nH]c3ccccc23)NC(=O)[C@@H](Cc2c[nH]c3ccccc23)NC(=O)[C@H](NC(=O)[C@H](CCCCN)NC(=O)[C@H](CCCCN)NC(=O)[C@H](CCCNC(=N)N)NC(=O)[C@@H](N)CCCNC(=N)N)CSSC[C@H](C(=O)O)NC(=O)[C@@H](CC(N)=O)NC1=O [PSP V A19, H-RRKKcwwftfinc-OH] (H-RRKK[dC][dW][dW][dF][dT][dF][dI][dN][dC]-OH; disulfide 5-13) | – | – | – | – | > 30 | > 30 |
